{"source": "patent US9708321B2", "about": "“Spiro-quinazolinone derivatives and their use as positive allosteric modulators of mGluR4” (Merck Patent GmbH, priority 2013, dated 2017)"}
{"target": "T1, hmGluR4 (Homo sapiens, UniProt Q14833)", "T1 construct": "host or cells: HEK293T", "T1 sequence (Q14833 33-912)": "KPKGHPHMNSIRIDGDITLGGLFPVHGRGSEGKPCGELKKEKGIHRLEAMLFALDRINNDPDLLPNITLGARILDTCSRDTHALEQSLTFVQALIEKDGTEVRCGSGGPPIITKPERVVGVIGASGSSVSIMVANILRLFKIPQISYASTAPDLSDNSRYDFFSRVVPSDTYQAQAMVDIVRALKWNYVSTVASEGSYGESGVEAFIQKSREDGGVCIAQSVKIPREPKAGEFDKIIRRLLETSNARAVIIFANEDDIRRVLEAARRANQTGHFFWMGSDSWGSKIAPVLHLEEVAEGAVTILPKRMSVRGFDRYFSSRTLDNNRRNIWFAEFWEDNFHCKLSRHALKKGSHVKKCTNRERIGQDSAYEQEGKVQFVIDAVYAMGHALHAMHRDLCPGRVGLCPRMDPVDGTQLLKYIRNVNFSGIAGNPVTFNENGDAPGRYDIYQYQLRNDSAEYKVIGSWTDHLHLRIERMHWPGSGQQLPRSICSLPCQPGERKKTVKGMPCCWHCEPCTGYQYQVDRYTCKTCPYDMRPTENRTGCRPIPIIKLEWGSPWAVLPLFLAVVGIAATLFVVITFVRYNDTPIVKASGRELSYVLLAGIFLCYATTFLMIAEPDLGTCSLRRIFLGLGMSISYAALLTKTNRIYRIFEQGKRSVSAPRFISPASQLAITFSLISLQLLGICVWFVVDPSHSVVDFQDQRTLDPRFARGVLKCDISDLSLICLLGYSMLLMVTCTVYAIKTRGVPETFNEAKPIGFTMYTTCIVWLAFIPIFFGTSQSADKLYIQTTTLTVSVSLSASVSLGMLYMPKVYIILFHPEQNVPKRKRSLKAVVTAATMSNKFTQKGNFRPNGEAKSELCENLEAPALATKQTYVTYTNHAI", "test": "HEK-293 mGluR4 cells cAMP assay with EC20 L-Glutamate (HTRF)", "assay_type": "cell-based", "conditions": "not given", "description": "(§1) II. Biological Assays HEK-293 mGluR4 Cells cAMP Assay with EC20 L-Glutamate\n(§2) Using mGluR4 suspension cell format, 10 μM Forskolin (final conc.) used to induce the production of cAMP.\n(§3) Test the positive allosteric activity of the compounds of the invention at EC20 (2.3 μM for mGluR4 and 4.3 μM for mGluR6) L-Glutamate,\n(§4) cAMP dymanic2 kit is intended for the direct quantitative determination of cAMP and its principle is based on HTRF technology.\n(§5) • Cells: HEK293T mGluR4 cells from Multispan, cat# C1191a lot# C1191a-040910 • Culture Media: DMEM+GlutaMAX1+10% dialyzed FBS, 100 mM Sodium Pyruvate, 1 ug/ml puromycin. • Glutamine Starvation Media: DMEM without GlutaMax for plating the cells (glutamine starvation overnight). DMEM high Glucose, without phenol red, glutamine, or sodium pyruvate+10% dialyzed FBS, 100 mM Sodium Pyruvate, 1 ug/ml puromycin, 10 mM Hepes. • Hanks' balanced Salt Solution, HBSS from Invitrogen • Greiner 384 well white low volume high base plate (784075) • cAMP dynamic2 from Cisbio Bioassays • Glutamate: L-Glutamaic acid, monosodium salt, Monohydrate, 98%, from Sigma-Aldrich • Cell Preparation: split cells at 80%-90% confluence. The following day, rinse the cells with DMEM without GlutaMax and change to Glutamine Starvation Media. Incubate overnight. Assay: • Prepare compound plate: Perform compound serial dilution (uses Matrix 4341 plate), using the Bravo liquid handling platform protocol (compound serial dilution) which adds DMSO to columns 1-24 (except cols. 3 and 13). Serial dilute compounds located in columns 3 and 13 at a 1:3 ratio; 10 points (10 ul of 3 mM compound into 20 ul DMSO). Use the Bravo liquid handling platform to transfer 1 ul from the serial dilution plate into Matrix 4314 plate to create stamp plates. Prepare Compound Dilution Buffer: • Dilute 20 mM Forskolin (in DMSO) stock solution in HBSS buffer to make a 20 uM solution (forskolin buffer; 2× solution). To the forskolin buffer, add glutamate to a concentration of 8 uM (compound dilution buffer; 2× EC20 glutamate and forskolin). • Using a multidrop, add 50 ul/well of compound dilution buffer to columns 1-22 of the 2 ul compound stamp plate. Columns 23 and 24 receive forskolin buffer containing 400 uM glutamate (EC100 glutamate; 2× solution). Columns 1 and 2 receive compound dilution buffer containing EC20 glutamate, which is the basal control. • Add a glutamate dose response to row P of compound plate. Prepare the dose response by serial diluting glutamate at a 1:3 ratio in forskolin buffer starting at 2 mM glutamate (2×). Dilute the glutamate 9 times and transfer to compound plate. Prepare Cell Plates: • Harvest cells: Rinse cells with pre-warmed HBSS-10 mM HEPES (without Ca Mg) and dissociate the cells from the flask with versene. Centrifuge the cells, remove the supernatant and suspend in pre-warmed HBSS+10 mM Hepes. Count the cells and centrifuge. Remove the supernatant and suspend the cells in HBSS+Hepes (with Ca Mg) at a density of 400,000 cells/ml. Perform Assay: • Dispense 5 ul from the diluted compound plate into Greiner low volume cell plate using the Bravo liquid handling platform. Using a Multidrop with the small tubing cassette, dispense 5 ul of cells (2000 cells/well) onto the compounds contained in the low volume plates. Incubate the cells at 37° C., 5% CO2 for 30 minutes in the incubator. Assay for cAMP: • Prepare cAMP-d2 and anti-cAMP-Crytate according to the instructions for the two step assay (see Cisbio manual) and add 10 ul of the mixed reagent to each well of the assay plate using the Multidrop. Incubate at room temperature for 60 minutes and read on the Envision plate reader using the mGluR low volume cAMP HTRF 384 well protocol.", "units": {"EC50": "nM"}}
{"compound": "COc1ccc(N2C(=O)c3ccccc3CC23CCN(Cc2ccc(F)c(F)c2)CC3)cc1", "note": "[Compound 126, 1′-(3,4-difluorobenzyl)-2-(4-methoxyphenyl)-2,4-dihydro-1H-spiro[isoquinoline-3,4′-piperidin]-1-one]", "EC50": "1000 to 10000"}
{"target": "T1, hmGluR4", "test": "HEK-293 mGluR4 cells cAMP assay with EC20 L-Glutamate (HTRF)", "assay_type": "cell-based", "conditions": "positive allosteric activity at EC20 L-Glutamate, 10 μM Forskolin, HEK293T mGluR4 cells, cAMP HTRF; read-out: hrmGluR4/HEK293T-hmGluR4 (EC50)", "description": "as §1, §2, §3, §4, §5", "units": {"EC50": "nM"}}
{"compound": "O=C1c2ccc(-c3ccco3)cc2NC2(CCN(Cc3ccc(F)c(F)c3)CC2)N1c1ccc(OC(F)(F)F)cc1", "note": "[Compound 6, 1-(3,4-Difluorobenzyl)-7′-(furan-2-yl)-3′-(4-(trifluoromethoxy)phenyl)-1′H-spiro[piperidine-4,2′-quinazolin]-4′(3′H)-one]", "EC50": "< 1000"}
{"compound": "CSc1ccc(N2C(=O)c3ccc(Br)cc3NC23CCN(Cc2ccc(F)c(F)c2)CC3)cc1", "note": "[Compound 5, 7′-Bromo-1-(3,4-difluorobenzyl)-3′-(4-(methylthio)phenyl)-1′H-spiro[piperidine-4,2′-quinazolin]-4′(3′H)-one]", "EC50": "< 1000"}
{"compound": "COc1ccc(N2C(=O)c3ccc(-c4ccccn4)cc3NC23CCN(Cc2ccc(F)c(F)c2)CC3)cc1", "note": "[Compound 73, 1-(3,4-Difluorobenzyl)-3′-(4-methoxyphenyl)-7′-(pyridin-2-yl)-1′H-spiro[piperidine-4,2′-quinazolin]-4′(3′H)-one]", "EC50": "1000 to 10000"}
{"compound": "O=C1c2ccc(C(F)(F)F)cc2NC2(CCN(Cc3ccc(F)c(F)c3)CC2)N1c1ccc(OC(F)(F)F)cc1", "note": "[Compound 16, 1-(3,4-Difluorobenzyl)-3′-(4-(trifluoromethoxy)phenyl)-7′-(trifluoromethyl)-1′H-spiro[piperidine-4,2′-quinazolin]-4′(3′H)-one]", "EC50": "< 1000"}
{"compound": "O=C1c2ccc(Br)cc2NC2(CCN(Cc3cccnc3)CC2)N1c1ccc(OC(F)(F)F)cc1", "note": "[Compound 118, 7′-Bromo-1-(pyridin-3-ylmethyl)-3′-(4-(trifluoromethoxy)phenyl)-1′H-spiro[piperidine-4,2′-quinazolin]-4′(3′H)-one]", "EC50": "1000 to 10000"}
{"compound": "O=C1c2ccc(Br)cc2NC2(CCN(C(c3cccc(F)c3)C(F)(F)F)CC2)N1c1ccc(OC(F)(F)F)cc1", "note": "(stereo not drawn) [Compound 43, 7′-Bromo-1-(2,2,2-trifluoro-1-(3-fluorophenyl)ethyl)-3′-(4-(trifluoromethoxy)phenyl)-1′H-spiro[piperidine-4,2′-quinazolin]-4′(3′H)-one]", "EC50": "< 1000"}
{"compound": "COc1ccc(N2C(=O)c3ccccc3NC23CN(Cc2ccccc2F)C3)cc1", "note": "[Compound 84, 1-(2-Fluorobenzyl)-3′-(4-methoxyphenyl)-1′H-spiro[azetidine-3,2′-quinazolin]-4′(3′H)-one]", "EC50": "1000 to 10000"}
{"compound": "Cc1ccc(CN2CCC3(CC2)Nc2cc(Br)ccc2C(=O)N3c2ccc(OC(F)(F)F)cc2)o1", "note": "[Compound 113, 7′-Bromo-1-((5-methylfuran-2-yl)methyl)-3′-(4-(trifluoromethoxy)phenyl)-1′H-spiro[piperidine-4,2′-quinazolin]-4′(3′H)-one]", "EC50": "1000 to 10000"}
{"compound": "COc1ccc(N2C(=O)c3ccccc3NC23CN(Cc2ccc(Cl)s2)C3)cc1", "note": "[Compound 98, 1-((5-Chlorothiophen-2-yl)methyl)-3′-(4-methoxyphenyl)-1′H-spiro[azetidine-3,2′-quinazolin]-4′(3′H)-one]", "EC50": "1000 to 10000"}
{"compound": "COc1ccc(N2C(=O)c3ccccc3NC23CCN(Cc2cc(Cl)ccc2Cl)CC3)cc1", "note": "[Compound 13, 1-(2,5-Dichlorobenzyl)-3′-(4-methoxyphenyl)-1′H-spiro[piperidine-4,2′-quinazolin]-4′(3′H)-one]", "EC50": "< 1000"}
{"compound": "COc1ccc(N2C(=O)c3ccccc3NC23CCN(Cc2cccc(OC(F)(F)F)c2)CC3)cc1", "note": "[Compound 55, 3′-(4-Methoxyphenyl)-1-(3-(trifluoromethoxy)benzyl)-1′H-spiro[piperidine-4,2′-quinazolin]-4′(3′H)-one]", "EC50": "< 1000"}
{"compound": "O=C1c2ccc(Br)cc2NC2(CCN(Cc3ccc(F)c(F)c3)CC2)N1c1ccc(OC(F)(F)F)cc1", "note": "[Compound 32, 7′-Bromo-1-(3,4-difluorobenzyl)-3′-(4-(trifluoromethoxy)phenyl)-1′H-spiro[piperidine-4,2′-quinazolin]-4′(3′H)-one]", "EC50": "< 1000"}
{"compound": "CCOC(=O)c1ccc2c(c1)NC1(CN(C(C)c3ccccc3Cl)C1)N(c1ccc(OC(F)(F)F)cc1)C2=O", "note": "(stereo not drawn) [Compound 30, Ethyl 1-(1-(2-chlorophenyl)ethyl)-4′-oxo-3′-(4-(trifluoromethoxy)phenyl)-3′,4′-dihydro-1′H-spiro[azetidine-3,2′-quinazoline]-7′-carboxylate]", "EC50": "< 1000"}
{"compound": "O=C1c2ccc(N3CCOCC3)cc2NC2(CCN(Cc3ccc(F)c(F)c3)CC2)N1c1ccc(OC(F)(F)F)cc1", "note": "[Compound 21, 1-(3,4-Difluorobenzyl)-7′-morpholino-3′-(4-(trifluoromethoxy)phenyl)-1′H-spiro[piperidine-4,2′-quinazolin]-4′(3′H)-one]", "EC50": "< 1000"}
{"compound": "COc1ccc(N2C(=O)c3ccccc3NC23CN(Cc2ccccc2C(F)(F)F)C3)cc1", "note": "[Compound 81, 3′-(4-Methoxyphenyl)-1-(2-(trifluoromethyl)benzyl)-1′H-spiro[azetidine-3,2′-quinazolin]-4′(3′H)-one]", "EC50": "1000 to 10000"}
{"compound": "COc1ccc(N2C(=O)c3ccc(OC)cc3NC23CCN(Cc2cccc(F)c2)CC3)cc1", "note": "[Compound 68, 1-(3-Fluorobenzyl)-7′-methoxy-3′-(4-methoxyphenyl)-1′H-spiro[piperidine-4,2′-quinazolin]-4′(3′H)-one]", "EC50": "1000 to 10000"}
{"compound": "CCC(c1ccc(F)c(F)c1)N1CCC2(CC1)Nc1cc(Br)ccc1C(=O)N2c1ccc(Cl)cc1", "note": "(stereo not drawn) [Compound 33, 7′-Bromo-3′-(4-chlorophenyl)-1-(1-(3,4-difluorophenyl)propyl)-1′H-spiro[piperidine-4,2′-quinazolin]-4′(3′H)-one]", "EC50": "< 1000"}
{"compound": "O=C1c2ccc(Br)cc2NC2(CCN(Cc3cccc4ncccc34)CC2)N1c1ccc(OC(F)(F)F)cc1", "note": "[Compound 57, 7′-Bromo-1-(quinolin-5-ylmethyl)-3′-(4-(trifluoromethoxy)phenyl)-1′H-spiro[piperidine-4,2′-quinazolin]-4′(3′H)-one]", "EC50": "< 1000"}
{"compound": "COc1ccc(N2C(=O)c3ccc(Cl)cc3NC23CCN(Cc2cccc(C#N)c2)CC3)cc1", "note": "[Compound 75, 3-((7′-Chloro-3′-(4-methoxyphenyl)-4′-oxo-3′,4′-dihydro-1′H-spiro[piperidine-4,2′-quinazolin]-1-yl)methyl)benzonitrile]", "EC50": "1000 to 10000"}
{"compound": "COc1ccc(N2C(=O)c3ccc(-c4ccccc4)cc3NC23CCN(Cc2ccc(F)c(F)c2)CC3)cc1", "note": "[Compound 19, 1-(3,4-Difluorobenzyl)-3′-(4-methoxyphenyl)-7′-phenyl-1′H-spiro[piperidine-4,2′-quinazolin]-4′(3′H)-one]", "EC50": "< 1000"}
{"compound": "COCCOc1ccc2c(c1)NC1(CCN(Cc3ccc(F)c(F)c3)CC1)N(c1ccc(OC(F)(F)F)cc1)C2=O", "note": "[Compound 121, 1-(3,4-Difluorobenzyl)-7′-(2-methoxyethoxy)-3′-(4-(trifluoromethoxy)phenyl)-1′H-spiro[piperidine-4,2′-quinazolin]-4′(3′H)-one]", "EC50": "1000 to 10000"}
{"compound": "COc1ccc(N2C(=O)c3ccccc3NC23CN(Cc2c(F)cc(F)cc2F)C3)cc1", "note": "[Compound 119, 3′-(4-Methoxyphenyl)-1-(2,4,6-trifluorobenzyl)-1′H-spiro[azetidine-3,2′-quinazolin]-4′(3′H)-one]", "EC50": "1000 to 10000"}
{"compound": "COCCOc1ccc(N2C(=O)c3ccc(Br)cc3NC23CCN(Cc2ccc(F)c(F)c2)CC3)cc1", "note": "[Compound 37, 7′-bromo-1-(3,4-difluorobenzyl)-3′-(4-(2-methoxyethoxyl)phenyl)-1′H-spiro[piperidine-4,2′-quinazolin]-4′(3′H)-one]", "EC50": "< 1000"}
